Assay results from patent US10344019B2 (priority 2010, dated 2019).
Read-outs that look alike come from different tables or passages of the source.

What was measured:
Format in all cases: cell-based
[1] = system: HCV 1a RLuc cells (dicistronic genotype 1a H77 replicon, RLuc reporter); test: microbe, parasite or virus in culture; conditions: Hepatitis C virus, read-out: 1a
Outline: (§1)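 Replicons used: genotype 1b Con1, 1a H77, 2a JFH-1, and a 2a JFH-1 chimera with J6-strain NS5A (M31 present), all dicistronic.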

[2] = system: HCV 4a Rluc cells (NS5A chimeric genotype 1b Con1 replicon with genotype 4a NS5A gene); test: microbe, parasite or virus in culture; conditions: Hepatitis C virus, read-out: 4a
Outline: (§2)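 Replicon cells stably carrying the listed RLuc-encoding dicistronic replicons were seeded and treated with DMSO serial dilutions of compound (10 mM stocks) diluted into culture medium. After 72 h, cells were lysed and Renilla luciferase activity measured. EC50 was derived by non-linear regression.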

[3] = system: HCV 2a JFH-1 Rluc cells (dicistronic genotype 2a JFH-1 replicon, RLuc reporter); test: microbe, parasite or virus in culture; conditions: Hepatitis C virus, read-out: 2a JFH
Outline: as §1

[4] = system: HCV 2b Rluc cells (NS5A chimeric genotype 2a JFH-1 replicon with genotype 2b MD2b-1 NS5A gene, M31 present); test: microbe, parasite or virus in culture; conditions: Hepatitis C virus, read-out: 2b
Outline: as §2

[5] = system: HCV 1b RLuc cells (dicistronic genotype 1b Con1 replicon, RLuc reporter); test: microbe, parasite or virus in culture; conditions: Hepatitis C virus, read-out: 1b (nM)
Outline: as §1

[6] = system: HCV 3a RLuc cells (NS5A chimeric genotype 1b Con1 replicon with consensus genotype 3a NS5A gene); test: microbe, parasite or virus in culture; conditions: Hepatitis C virus
Outline: as §2

[7] = system: HCV 2a Rluc cells (NS5A chimeric genotype 2a JFH-1 replicon with genotype 2a J6 strain NS5A gene, M31 present); test: HCV replicon reporter assay, genotype 2a J6 (M31 present); conditions: Hepatitis C virus, read-out: 2a J6
Outline: as §1

[8] = system: Q30R in genotype 1a NS5A, 1a Rluc replicon transfected into Huh-7 cured-51 cells; test: HCV replicon assay, resistance mutant 1a Q30R; conditions: Hepatitis C virus, Huh-7, read-out: 1a Q30R
Outline: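 Cells were Huh-7 cured-51 transfected with replicon RNA of a genotype 1a H77 RLuc replicon carrying site-directed Q30R in NS5A.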

[9] = genotype 2a JFH-1 RLuc replicon
[10] = read-out: 3a, genotype 3a NS5A chimeric replicon
[11] = read-out: 3a, genotype 3a replicon

Structure (SMILES)	EC50 ([1]; genotype 1a H77 RLuc replicon) [nM]	EC50 [2] [nM]	EC50 [3, 9] [nM]	EC50 [4] [nM]	EC50 [5] [nM]	EC50 [6, 10] [nM]	EC50 [7] [nM]	EC50 [8] [nM]	EC50 ([1]; genotype 1a replicon) [nM]	EC50 ([3]; genotype 2a JFH-1 replicon) [nM]	EC50 [6, 11] [nM]
COC[C@H]1C[C@@H](c2nc3ccc4cc5c(cc4c3[nH]2)OCc2cc(-c3cnc([C@@H]4CCCN4C(=O)[C@H](NC(=O)OC)c4ccccc4)[nH]3)ccc2-5)N(C(=O)[C@@H](NC(=O)OC)C(C)C)C1 [Example 544]	0.001 to 0.999	0.001 to 0.99	0.001 to 0.999	0.001 to 0.999	0.026	0.001 to 0.99	0.001 to 0.999	0.001 to 0.999	–	–	–
COC(=O)N[C@H](C(=O)N1[C@H]2CC[C@H](C2)[C@H]1c1nc2ccc3cc(-c4ccc(-c5cnc([C@@H]6CCCN6C(=O)[C@H](NC(=O)OC)c6ccccc6)[nH]5)cc4)ccc3c2[nH]1)C(C)C [Example 424]	–	0.001 to 0.99	–	0.001 to 0.999	0.028	–	0.001 to 0.999	1 to 44	0.001 to 0.999	0.001 to 0.999	0.001 to 0.99
COC(=O)N[C@H](C(=O)N1CCC[C@H]1c1ncc(-c2ccc3c(c2)COc2cc4c(ccc5nc([C@@H]6CCCN6C(=O)[C@H](NC(=O)OC)c6ccccc6)[nH]c54)cc2-3)[nH]1)C(C)C [Example 423]	–	0.001 to 0.99	–	0.001 to 0.999	0.02	–	0.001 to 0.999	0.001 to 0.999	0.001 to 0.999	0.001 to 0.999	0.001 to 0.99
COC[C@H]1C[C@@H](c2nc3ccc4cc(-c5ccc(-c6cnc([C@@H]7CCCN7C(=O)[C@@H](NC(=O)OC)C(C)C)[nH]6)cc5OC(F)F)ccc4c3[nH]2)N(C(=O)[C@H](NC(=O)OC)c2ccccc2)C1 [Example 567]	0.001 to 0.999	0.001 to 0.99	0.001 to 0.999	0.001 to 0.999	0.007	0.001 to 0.99	0.001 to 0.999	0.001 to 0.999	–	–	–
COC(=O)N[C@H](C(=O)N1C[C@@H](C)C[C@H]1c1ncc(-c2ccc3c(c2)COc2cc4c(ccc5nc([C@@H]6C[C@H](C)CN6C(=O)[C@H](NC(=O)OC)c6ccccc6)[nH]c54)cc2-3)[nH]1)C(C)C [Example 582]	0.001 to 0.999	0.001 to 0.99	0.001 to 0.999	0.001 to 0.999	0.01	0.001 to 0.99	0.001 to 0.999	0.001 to 0.999	–	–	–
CCO[C@H]1C[C@@H](c2nc3ccc4cc5c(cc4c3[nH]2)OCc2cc(-c3cnc([C@@H]4CCCN4C(=O)[C@@H](NC(=O)OC)C(C)C)[nH]3)ccc2-5)N(C(=O)[C@@H](NC(=O)OC)C(C)C)C1 [Example 551]	0.001 to 0.999	0.001 to 0.99	0.001 to 0.999	0.001 to 0.999	0.018	0.001 to 0.99	0.001 to 0.999	0.001 to 0.999	–	–	–
CCC(=O)N[C@@H](C(=O)N1[C@@H]2CC[C@@H](C2)[C@H]1c1nc2ccc3cc(-c4ccc5c(ccc6nc([C@@H]7CCCN7C(=O)[C@@H](NC(=O)OC)C(C)C)[nH]c65)c4)ccc3c2[nH]1)c1ccccc1 [Example 418]	–	0.001 to 0.99	–	0.001 to 0.999	0.035	–	0.001 to 0.999	1 to 44	0.001 to 0.999	0.001 to 0.999	0.001 to 0.99
